Converted amounts (≈) assume the structure as drawn.
Settings: buffer; pH 7.4; 200.0 µM

Row | Structure (SMILES) | solubility kinetic [µg/mL]
1 | CN(C(=O)CSc1nnc(-c2ccc(F)cc2)n1C)C1CCS(=O)(=O)C1 (stereo not given) | > 59.8
2 | COc1cc([N+](=O)[O-])ccc1NC(=O)COC(=O)c1c[nH]c(=O)[nH]c1=O | > 54.6
3 | Cc1cc2c(c(SCC(N)=O)n1)C(=O)OC2 | > 35.7
4 | O=C(NCCc1ccccc1)C1CCN(C(=O)c2ccc(F)cc2)CC1 | 47.4 (≈ 134 µM)
5 | CCOC(=O)c1cnc2c(C)cccc2c1Nc1cccc(C(=O)O)c1.Cl | > 58
6 | CSc1ncccc1C(=O)OCC(=O)N1CCc2ccccc21 | 2 (≈ 6.09 µM)
7 | COc1ccc(NC(=O)c2ccccc2NC(=O)C2CC=CCC2C(=O)O)cc1 (stereo not given) | > 59.2
8 | Cc1ccc(CSCC(=O)Nc2ccccc2C(=O)O)cc1 | > 47.3
9 | CCCCn1c(N)c(N(CC)C(=O)c2ccco2)c(=O)[nH]c1=O | > 48.1
10 | COCCN1CCn2c(nc3cc(NC(C)=O)ccc32)C1 | 36.4 (≈ 126 µM)
11 | O=C(COC(=O)c1ccc(Cl)nc1)Nc1cc(S(=O)(=O)N2CCOCC2)ccc1Cl | 50.6 (≈ 107 µM)
12 | Cc1ccsc1C(=O)OCC(=O)N(C)C1CCCCC1 | > 44.3
13 | Cc1c(C(=O)N2CCC2)oc2c(F)cccc12 | 30.3 (≈ 130 µM)
14 | CC(C)(CO)NC(=O)c1ccc2c(c1)C(=O)c1ccccc1-2 | 43.7 (≈ 148 µM)
15 | COc1ccccc1-c1cc(-c2ccc(O)cc2)nc(N)c1C#N | 3.7 (≈ 11.7 µM)
16 | COc1cccc(CNC(=O)CCNC(=O)c2ccco2)c1 | > 45.3
17 | OCCC1CN(Cc2cccn2-c2ncccn2)CCN1C1CCCC1 (stereo not given) | 51.5 (≈ 145 µM)
18 | Cc1cc(C(=O)NC2=NCCS2)c2ccccc2n1 | > 40.7
19 | CCCc1cnc(N2CCN(C(=O)c3c(-c4ccccc4)noc3C)CC2)nc1 | 40.7 (≈ 104 µM)
20 | Fc1ccc(COc2ccc(C(=S)N3CCCC3)cc2)cc1 | < 0.7
21 | CC(=O)Nc1ccc(OS(=O)(=O)c2ccc(Cl)cc2)cc1 | 38.6 (≈ 118 µM)
22 | COc1ccccc1NC(=O)C(C)Sc1nccn1C (stereo not given) | > 43.7
23 | CCNc1nc(NCC)nc(Oc2ccc(C(=O)OC)cc2)n1 | 2.8 (≈ 8.82 µM)
24 | Cc1ccc(-c2ccc(S(=O)(=O)Nc3cccnc3)cc2)cc1 | 0.5 (≈ 1.54 µM)
25 | S=c1nc(C2CCCCC2)[nH]c2ccccc12 | 0.5 (≈ 2.05 µM)

Row | Structure (SMILES) | solubility kinetic [µg/mL]
26 | CCOc1ccccc1NC(=O)N1CCCN(c2ncccc2C#N)CC1 | 45.7 (≈ 125 µM)
27 | C=C(c1ccccc1C)[n+]1ccccc1 | 22.1
28 | COCCNc1c2c(c(C#N)c3nc4ccccc4n13)CCCC2 | 11.8 (≈ 36.8 µM)
29 | CCSC1=NCCN1C(=O)C(C)(C)Oc1ccc(Cl)cc1 | 9.8 (≈ 30 µM)
30 | O=S(=O)(Nc1ccc(Br)cc1)N1CCOCC1 | > 48.2
31 | CCc1ccnc(NC(=O)NS(=O)(=O)c2ccc(C)cc2)c1 | 47.6 (≈ 149 µM)
32 | OCC1(Cc2ccccc2)CCN(Cc2cccc(F)c2F)CC1 | 43 (≈ 130 µM)
33 | CC(=O)c1ccc(NC(=S)NCc2ccco2)cc1 | > 41.2
34 | N#Cc1ccc(NC(=O)c2cccs2)nc1 | > 34.4
35 | O=C(Nc1nc(-c2cccnc2)cs1)c1ccc([N+](=O)[O-])cc1 | 3.2 (≈ 9.81 µM)
36 | CN(C(=O)COC(=O)c1ccc(Cl)c(S(=O)(=O)N2CCCCCC2)c1)C1CCS(=O)(=O)C1 (stereo not given) | > 76.1
37 | O=C(Cc1ccc(Br)cc1)N1CCc2ccccc2C1 | 3.9 (≈ 11.8 µM)
38 | O=[N+]([O-])c1ccc2c(c1)ncn2CCc1ccccc1 | 8 (≈ 29.9 µM)
39 | CCCC(=NC(C)CC)C1=C(O)CC(c2ccccc2)CC1=O (stereo not given) | 39 (≈ 124 µM)
40 | CC(=O)Nc1ccc(S(=O)(=O)N2C(C)CCCC2C)cc1 (stereo not given) | > 46.6
41 | CC(=O)Nc1ccc(C(=O)COC(=O)C2CC2C)c(F)c1 (stereo not given) | > 44
42 | Cc1cccc(C(=O)NC(=S)N(C)C2CCCCC2)c1 | 35.9 (≈ 124 µM)
43 | Cc1c(Cl)cccc1NC(=O)CC1Oc2ccccc2NC1=O (stereo not given) | 5.7 (≈ 17.2 µM)
44 | O=C(CCC(=O)c1cccs1)NCc1ccncc1 | > 41.2
45 | O=[N+]([O-])c1ccc(C(O)CN2CCN(c3ccccc3)CC2)cc1 (stereo not given) | 3 (≈ 9.16 µM)
46 | COc1ccc(Cc2n[nH]c(=S)n2N)cc1OC | > 39.9
47 | CN(CC(=O)NC1CCCCCC1)S(=O)(=O)c1cnc[nH]1 | > 47.2
48 | CC(=O)NCCc1c[nH]c2ccc(O)cc12 | > 32.7
49 | O=C(CN1C(=O)CCC1=O)Nc1cccc2c1C(=O)NC2=O | > 45.2

Second part, the compound after the results:

Row | solubility kinetic [µg/mL] | Structure (SMILES)
50 | 2.8 (≈ 7.52 µM) | Cc1cccc(NC(=O)COC(=O)[C@@H]2CCCN2C(=O)c2cccs2)c1
51 | 34 (≈ 102 µM) | COc1ccc(CC(=O)OCC(=O)Nc2cccc(Cl)c2)cc1
52 | > 51.5 | CC(C)COP(=O)(OCC(C)C)C(O)c1ccc(N(C)C)cc1 (stereo not given)
53 | > 45.7 | COc1cccc(CNC(=O)CNC(=O)c2cccs2)c1
54 | 7 (≈ 26.6 µM) | O=S(=O)(Cc1ccccc1)N(O)c1ccccc1
55 | > 40.8 | Cc1ccccc1C(=O)NCCNC(=O)c1ccco1
56 | > 41.6 | O=C(O)CC[C@@H](C(=O)O)N1C(=O)c2ccccc2C1=O
57 | 6.6 (≈ 22.3 µM) | O=C1/C(=C/c2ccco2)SC(=S)N1CC1CCCO1 (stereo not given)
58 | 24.8 (≈ 112 µM) | Cc1cccc(C)c1OCC1CNC(=O)O1 (stereo not given)
59 | 2.8 (≈ 11.7 µM) | CCC1(C)Cc2ccccc2-c2nc[nH]c(=O)c21 (stereo not given)
60 | 35.8 (≈ 130 µM) | CCOC(=O)C(=O)N1CCC(Cc2ccccc2)CC1
61 | 17.4 (≈ 51.4 µM) | CC(C)(C)N1C(=O)c2ccc(C(=O)Nc3ccc(O)cc3)cc2C1=O
62 | 0.7 (≈ 2.35 µM) | COC(=O)c1c(NC(=O)C2=COCCO2)sc(C)c1C
63 | 40.9 (≈ 121 µM) | CCOc1ccc(/C=C2\SC(=S)N(CCC(=O)O)C2=O)cc1
64 | < 0.3 | COc1nc(-c2ccccc2)ncc1S(=O)(=O)c1ccccc1
65 | > 45.5 | N#CC1(NC(=O)COC(=O)c2nccnc2N)CCCCC1
66 | > 47.8 | CC(C)[C@H](NC(=O)N1CCC(Cc2ccccc2)CC1)C(=O)O
67 | 35.4 (≈ 135 µM) | CCNC(=S)N1CCC(Cc2ccccc2)CC1

Row | solubility kinetic [µg/mL] | Structure (SMILES)
68 | 53.3 (≈ 128 µM) | COc1cccc(CN(C)CC2CCCN(CCc3ccc(Cl)cc3)C2)c1OC (stereo not given)
69 | > 43.2 | Cc1cc(OC(=O)c2ccccc2C)c([N+](=O)[O-])c(=O)[nH]1
70 | 2 (≈ 5.71 µM) | Cc1cccc(C(=O)Nc2cc(NC(=O)c3cccs3)ccc2C)c1
71 | > 49 | Cc1ccc(S(=O)(=O)Nc2nc(C)c(C(=O)NN)s2)cc1
72 | > 41 | COc1ccc(S(=O)(=O)N2CCSCC2)cc1
73 | > 49.4 | COC(=O)c1c(C)nc(C)c(C(=O)OC)c1-c1ccc(OC)cc1
74 | 36.6 (≈ 131 µM) | CCOC(=O)c1ccc(CC2SC(N)=NC2=O)cc1 (stereo not given)
75 | 2.5 (≈ 7.39 µM) | COc1ccc(OC)c(NC(=O)Cn2cc(C=O)c3ccccc32)c1
76 | 16 (≈ 48.6 µM) | CC(C)(C)c1csc(NC(=O)c2ccc(Br)o2)n1
77 | > 45.9 | O=C(NCc1cccnc1)Nc1ccc(Br)cc1
78 | 59.9 (≈ 144 µM) | COc1ccc(OC)c(CN2CCN(C(=O)CNC(=O)c3ccccc3F)CC2)c1
79 | 1 (≈ 2.85 µM) | CN1c2ccccc2C(=O)/C(=C\Nc2ccc(F)cc2F)S1(=O)=O
80 | > 46.2 | Cc1cccc([N+](=O)[O-])c1NC(=O)COC(=O)C1CCCO1 (stereo not given)
81 | > 46.1 | Cc1cc(NCCCN(C)C)n2c(nc3ccccc32)c1C#N
82 | > 45.2 | Cn1c(=O)c2c(nc(Oc3ccccc3N)n2C)n(C)c1=O
83 | > 45.7 | COc1ccc(C)cc1Nc1c2c(nc3ccccc13)CCC2
84 | > 43.1 | Br.CCCCCCCCn1ccc(=N)cc1
85 | 36.1 (≈ 125 µM) | NC(=O)COC(=O)c1cccnc1Nc1ccccc1F

Reference: PubChem BioAssay AID1996
